Results from patent publication US12233081B2, “Hygromycin a compounds and methods of treating spirochete diseases” (priority 2018, dated 2025).

Tests used:
B. burgdorferi N40 = test: C3H mice infected with Borrelia burgdorferi, cell counts in skin tissue; type: in vivo; conditions: 156 mg/kg IP injection, 5 days of dosing
Experimental: C3H mice (Charles River Laboratories) are used in classical Lyme disease infection model. Mice were rested for more than 1 day after delivery before infected with 10^5 B. burgdorferi N40 cells by subcutaneous injection. Infection was established for 3 weeks. 100 μl of saline, ceftriaxone or hygromycin A was administered by IP injection. Compounds of the invention can also be tested for efficacy as described herein.
Ceftriaxone (USP grade) was purchased from Sigma-Aldrich. Saline was purchased from Baxter Healthcare. Ceftriaxone powder was dissolved into saline to 31.2 mg/ml solution. Hygromycin A stock solution at 200 mg/ml was diluted into saline to make 50 mg/ml (250 mg/kg), 15 mg/ml (75 mg/kg), 14 mg/ml (70 mg/kg), 10 mg/ml (50 mg/kg) and 5 mg/ml (25 mg/kg) solutions.
In the B. burgdorferi mice infection model, skin is the tissue with highest bacterial burden. After sacrificing mice 2 days after 5 days of dosing, we took 100 mg skin tissue from mouse ear, homogenized the tissue and plated on BSK-II semi-agar plates for cell number counts. No colony appearing on the plates is considered as clearance of the infection.

gut microbiome = gut microbiome 16S rRNA sequencing of stool of infected, treated mice; conditions: subcutaneous 156 mg/kg every 12 hours for 5 days

CO/N=C(\C(=O)N[C@@H]1C(=O)N2C(C(=O)O)=C(CSc3nc(=O)c(=O)[nH]n3C)CS[C@H]12)c1csc(N)n1 [Ceftriaxone]
# of B. burgdorferi cells in 100 mg skin tissue (B. burgdorferi N40): <1
Acholeplasmataceae change in percent relative abundance (gut microbiome): 0.213%
Aerococcaceae change in percent relative abundance (gut microbiome): 0.000%
Anaerolineaceae change in percent relative abundance (gut microbiome): 0.000%
Anaeroplasmataceae change in percent relative abundance (gut microbiome): 0.000%
Anaplasmataceae change in percent relative abundance (gut microbiome): 0.001%
Aspergillaceae change in percent relative abundance (gut microbiome): 0.000%
Asteraceae change in percent relative abundance (gut microbiome): 0.011%
Bacillaceae change in percent relative abundance (gut microbiome): 0.055%
Bacillales change in percent relative abundance (gut microbiome): −0.174%
Bacteroidaceae change in percent relative abundance (gut microbiome): −26.593%
Bifidobacteriaceae change in percent relative abundance (gut microbiome): 0.000%
Brucellaceae change in percent relative abundance (gut microbiome): 0.000%
Camobacteriaceae change in percent relative abundance (gut microbiome): 0.000%
Chitinophagaceae change in percent relative abundance (gut microbiome): 0.000%
Christensenellaceae change in percent relative abundance (gut microbiome): 0.000%
Clostridiaceae change in percent relative abundance (gut microbiome): −10.423%
Clostridiales change in percent relative abundance (gut microbiome): −0.174%
Clostridiales family xi. incertae sedis change in percent relative abundance (gut microbiome): −0.050%
Clostridiales family xiii. incertae sedis change in percent relative abundance (gut microbiome): −0.015%
Coriobacteriaceae change in percent relative abundance (gut microbiome): −0.049%
Corynebacteriaceae change in percent relative abundance (gut microbiome): 0.002%
Cytophagaceae change in percent relative abundance (gut microbiome): 0.000%
Deferribacteraceae change in percent relative abundance (gut microbiome): −1.344%
Defluviitaleaceae change in percent relative abundance (gut microbiome): −0.002%
Desulfobacteraceae change in percent relative abundance (gut microbiome): 0.000%
Enterobacteriaceae change in percent relative abundance (gut microbiome): −0.487%
Enterococcaceae change in percent relative abundance (gut microbiome): 77.7%
Erysipelotrichaceae change in percent relative abundance (gut microbiome): −1.012%
Eubacteriaceae change in percent relative abundance (gut microbiome): −3.445%
Fabaceae change in percent relative abundance (gut microbiome): 0.003%
Flavobacteriaceae change in percent relative abundance (gut microbiome): 0.000%
Francisellaceae change in percent relative abundance (gut microbiome): 0.000%
Fusobacteriaceae change in percent relative abundance (gut microbiome): 0.001%
Gammaproteobacteria change in percent relative abundance (gut microbiome): −0.008%
Gloeobacteraceae change in percent relative abundance (gut microbiome): −0.018%
Gracilibacteraceae change in percent relative abundance (gut microbiome): −0.087%
Halomonadaceae change in percent relative abundance (gut microbiome): 0.000%
Hylidae change in percent relative abundance (gut microbiome): 0.001%
Kopriimonadaceae change in percent relative abundance (gut microbiome): 0.000%
Lachnospiraceae change in percent relative abundance (gut microbiome): −11.193%
Lactobacillaceae change in percent relative abundance (gut microbiome): −1.712%
Leuconostocaceae change in percent relative abundance (gut microbiome): 0.015%
Methylobacteriaceae change in percent relative abundance (gut microbiome): 0.001%
Microbacteriaceae change in percent relative abundance (gut microbiome): 0.001%
Mucoraceae change in percent relative abundance (gut microbiome): 0.000%
Nostocaceae change in percent relative abundance (gut microbiome): 0.002%
Onagraceae change in percent relative abundance (gut microbiome): 0.000%
Oscillatoriales change in percent relative abundance (gut microbiome): 0.090%
Oscillospiraceae change in percent relative abundance (gut microbiome): −0.009%
Paenibacillaceae change in percent relative abundance (gut microbiome): 0.003%
Pasteurellaceae change in percent relative abundance (gut microbiome): 0.001%
Pelobacteraceae change in percent relative abundance (gut microbiome): 0.000%
Peptococcaceae change in percent relative abundance (gut microbiome): −0.602%
Peptoniphilaceae change in percent relative abundance (gut microbiome): 0.001%
Peptostreptococcaceae change in percent relative abundance (gut microbiome): −0.185%
Physalacriaceae change in percent relative abundance (gut microbiome): 0.000%
Poaceae change in percent relative abundance (gut microbiome): 0.820%
Polyangiaceae change in percent relative abundance (gut microbiome): 0.001%
Porphyromonadaceae change in percent relative abundance (gut microbiome): −24.493%
Prevotellaceae change in percent relative abundance (gut microbiome): −0.417%
Pseudomonadaceae change in percent relative abundance (gut microbiome): 0.002%
Rhizobiaceae change in percent relative abundance (gut microbiome): 0.001%
Rhodobacteraceae change in percent relative abundance (gut microbiome): 0.000%
Rikenellaceae change in percent relative abundance (gut microbiome): −6.750%
Ruminococcaceae change in percent relative abundance (gut microbiome): −2.217%
Sphingomonadaceae change in percent relative abundance (gut microbiome): 0.000%
Spirochaetaceae change in percent relative abundance (gut microbiome): −0.055%
Spiroplasmataceae change in percent relative abundance (gut microbiome): −0.051%
Staphylococcaceae change in percent relative abundance (gut microbiome): 0.047%
Streptococcaceae change in percent relative abundance (gut microbiome): 12.672%
Thermoanaerobacteraceae change in percent relative abundance (gut microbiome): −0.033%
Veillonellaceae change in percent relative abundance (gut microbiome): 0.000%
Verrucomicrobiaceae change in percent relative abundance (gut microbiome): −0.004%
Xanthomonadaceae change in percent relative abundance (gut microbiome): 0.001%
all other commensal taxa such as Bacteroidaceae and Lactobacillaceae (gut microbiome): depleted
mice with Enterococcaceae blooms (gut microbiome): 5/5
Enterococcaceae change in percent relative abundance (gut microbiome; listed as Cef): 77.719%
